Measurements published in patent US5026733A, “Brain function-improving medicine” (Tsumura & Co., priority 1988, dated 1991).

How the values were obtained:
[1] = Step-through passive avoidance learning test; format: in vivo, male ICR strain mouse (5-weeks-old); details: 3 mg/kg p.o.
Experimental: (§1) A male ICR strain mouse (5-weeks-old) was admitted in a bright chamber of a step-through passive avoidance learning device. After 60 seconds, a guillotine door was opened. Just after the mouse entered a dark room, the guillotine door was shut, and a foot shock of 0.15 mA was given to the mouse for 5 seconds. This operation was conducted until the mouse stayed in the bright room for more than 1 minute. Then, the mouse was taken out and 3 mg/kg of the compound of the formula was orally administered, and the mouse was returned to a home cage.
(§2) After 24 hours, the mouse was admitted into the bright chamber, and after 60 seconds, the guillotine door was opened and the time required for the mouse to enter in the dark room was measured as 300 seconds at longest. Furthermore, 3 mg/kg of the compound of the formula was orally administered, and the spontaneous movement quantity for 4 hours after the oral administration was measured by an animex and the total quantity was calculated. Note, 1% Tween was orally administered to the control group.

[2] = test system: locomotor activity by scopolamine; assay: Scopolamine-induced locomotor activity measured by animex; format: in vivo, male ICR strain mouse (6-weeks-old); details: 3 mg/kg p.o.
Experimental: In the same manner as described in Test Example 2, 3 mg/kg of the compound of the formula was orally administered to a male ICR strain mouse (6-weeks-old), and after 2 hours, 2 mg/kg of scopolamine was intraperitoneally administered. For 120 minutes from the point of the application, the locomotor activity was measured by an animex. To the control group, 1% Tween 80 was orally administered and 2 mg/kg of scopolamine was intraperitoneally administered, and the locomotor activity was similarly measured.

[3] = test system: acetylcholine (ACh) content at subcerebral part; assay: ACh content at subcerebral part (HPLC-ECD), with or without scopolamine; format: in vivo, male ICR strain mouse (9-weeks-old)
Experimental: (§3) The compound of the formula was orally administered to a male ICR strain mouse (9-weeks-old), and after 2 hours, 2 mg/kg of scopolamine was applied to the abdominal cavity. After 30 minutes, the mouse was irradiated with 10 KW of microwaves for 0.5 seconds, and the brain was extracted and then divided into two parts, that is, the cerebral cortex (inclusive of hippocampus) and the subcerebral part. The wet weights were measured and the acetylcholine (hereinafter referred to as "ACh") contents were measured according to the following method.
(§4) Each part of the brain was homogenized by 0.1N perchloric acid (HClO4)and subjected to centrifugal separation under 30000 g for 15 minutes. The supernatant was passed through a 0.45 μm microfilter and poured into HPLC-ECD.
(§5) The measurement conditions were as follows.
(§6) Moving phase: phosphate buffer (pH 8.0)
(§7) Enzyme immobilized column: Eicom AC-Enzmpak
(§8) Anakyzing column: Eicom AC-ODS (4.6 mm in diameter and 250 mm in length)
(§9) The compound of the formula was orally administered while scopolamine was not applied, and after 2 hours and 30 minutes, the ACh content was determined in the same manner as described above.

[4] = Acute toxicity by oral administration, mice
[5] = Acute toxicity by oral administration, rats; details: rat, in vivo
[6] = test system: acetylcholine (ACh) content at cerebral cortex; assay: ACh content at cerebral cortex (HPLC-ECD), with or without scopolamine; format: in vivo, male ICR strain mouse (9-weeks-old)
Experimental: as §3, §4, §5, §6, §7, §8, §9

[7] = Spontaneous movement quantity measured by animex; format: in vivo, male ICR strain mouse (5-weeks-old); details: 3 mg/kg p.o.; 4 hours after administration; control 5123 ± 259
Experimental: as §1, §2

[8] = test system: locomotor activity by methamphethamine; assay: Methamphethamine-induced locomotor activity measured by animex; format: in vivo, male ICR strain mouse (5-weeks-old); details: 3 mg/kg p.o.
Experimental: The compound of the formula (3 mg/kg) was orally administered to a male ICR strain mouse (5-weeks-old), and after 2 hours, 2 mg/kg of methamphethamine was intraperitoneally administered. The locomotor activity for every 15 minutes was measured by an animex, and the measurement was conducted for 120 minutes. To the control group, 1% Tween 80 was administered instead of the compound of the formula, and after 2 hours, 2 mg/kg of methamphethamine was intraperitoneally administered. The locomotor activity was similarly measured.

[9] = also under the application of scopolamine

Which results are given for `COc1cc2c(c(OC)c1OC)-c1c(cc(OC)c(OC)c1OC)C[C@](C)(O)[C@@H](C)C2` [compound of the formula]?
avoidance learning function (in words) [1]: a reduction of the avoidance learning function is not observed; time required for mouse to enter dark room ([1]; 24 hours after foot shock training, measured as 300 seconds at longest, control 229 ± 30.4): > 300 s; locomotor activity by scopolamine (in words) [2]: controls the locomotor activity by scopolamine; locomotor activity ([2]; 2 h before 2 mg/kg i.p. scopolamine, for 120 minutes, control 6353±296): 3991±389; ACh content at subcerebral part ([3]; 3 mg/kg p.o., 2 mg/kg scopolamine after 2 h, scopolamine alone 23.3): 26.9 nM/g of wet weight; ACh content at subcerebral part ([3]; 3 mg/kg p.o., no scopolamine, 2 h 30 min, untreated 27.8): 35.0 nM/g of wet weight; ACh content at subcerebral part ([3]; 30 mg/kg p.o., 2 mg/kg scopolamine after 2 h, scopolamine alone 23.3): 26.1 nM/g of wet weight; ACh content at subcerebral part ([3]; 30 mg/kg p.o., no scopolamine, 2 h 30 min, untreated 27.8): 38.9 nM/g of wet weight; ACh content at subcerebral part (in words) [3, 9]: increases the ACh contents at the cerebral cortex and the subcerebral part; LD50 ([4]; mouse, in vivo, po): 900 mg/kg; toxicity (in words) ([4]; oral acute toxicity, mice and rats): low toxicity; LD50 [5]: 900 mg/kg; ACh content at cerebral cortex ([6]; 3 mg/kg p.o., 2 mg/kg scopolamine after 2 h, scopolamine alone 11.4): 13.9 nM/g of wet weight; ACh content at cerebral cortex ([6]; 3 mg/kg p.o., no scopolamine, 2 h 30 min, untreated 15.7): 20.9 nM/g of wet weight; ACh content at cerebral cortex ([6]; 30 mg/kg p.o., 2 mg/kg scopolamine after 2 h, scopolamine alone 11.4): 13.7 nM/g of wet weight; ACh content at cerebral cortex ([6]; 30 mg/kg p.o., no scopolamine, 2 h 30 min, untreated 15.7): 21.7 nM/g of wet weight; ACh content at cerebral cortex (in words) [6, 9]: increases the ACh contents at the cerebral cortex; sum of spontaneous movement quantity for 4 hours [7]: 6693 ± 474; locomotor activity by methamphethamine (in words) [8]: controls the locomotor activity by methamphethamine; locomotor activity after 15 minutes ([8]; 2 h before 2 mg/kg i.p. methamphethamine, after 15 minutes, control 1250 ± 68): 1034 ± 111; locomotor activity after 30 minutes ([8]; 2 h before 2 mg/kg i.p. methamphethamine, after 30 minutes, control 1551 ± 33): 1295 ± 34; locomotor activity after 45 minutes ([8]; 2 h before 2 mg/kg i.p. methamphethamine, after 45 minutes, control 1511 ± 32): 1245 ± 50; locomotor activity after 60 minutes ([8]; 2 h before 2 mg/kg i.p. methamphethamine, after 60 minutes, control 1429 ± 38): 1156 ± 49; locomotor activity after 75 minutes ([8]; 2 h before 2 mg/kg i.p. methamphethamine, after 75 minutes, control 1344 ± 34): 1087 ± 40; locomotor activity after 90 minutes ([8]; 2 h before 2 mg/kg i.p. methamphethamine, after 90 minutes, control 1228 ± 44): 989 ± 53; locomotor activity after 120 minutes ([8]; 2 h before 2 mg/kg i.p. methamphethamine, after 120 minutes, control 1126 ± 28): 898 ± 60
